Measurements: PubChem BioAssay AID493092 (Sanford-Burnham Center for Chemical Genomics, 2011)
Activity calls are given as the source filed them.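 Rule for the calls: active = averaged IC50 for reducing per-cell lipid droplet stain intensity under a set limit; inactive = the rest.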

Tested on: AML12 mouse hepatocytes, BODIPY lipid droplet imaging
Test: lipid droplet accumulation inhibition in liver cells – imaging, AML12 mouse hepatocytes, BODIPY staining, SAR follow-up (AID 493092)
Conditions: cells fed 100 µM oleate overnight

| Structure (SMILES) | IC50 |
| --- | --- |
| CC(OC(=O)c1ccc(O)cc1)C(=O)Nc1nc(-c2cccc([N+](=O)[O-])c2)cs1 (configuration not stated) | > 32000 nM (inactive) |
| Cc1cc(C)n(-c2ccc(C(=O)OC(C)C(=O)Nc3nc(-c4ccccc4)cs3)cc2)n1 (configuration not stated) | > 32000 nM (inactive) |
| CCOc1ccc(CCNC(=O)CCc2nnc3ccc(N4CCCC4)nn23)cc1OCC | 922 nM |
| COc1ccc(CCNC(=O)Nc2ccccc2Cl)cc1OC | > 32000 nM (inactive) |
| CCOc1ccccc1Nc1nnc(SC(C)C(=O)Nc2nc(-c3ccccc3)cs2)s1 (configuration not stated) | 1160 nM |
| Cc1ccc(-n2nc3c(=O)n(CC(=O)NC(C)CCc4ccccc4)nc(C)c3c2C)cc1 (configuration not stated) | 413 nM |
| COc1cc2c(cc1OC)CN(C(=O)CNC(=O)Cc1cccc3ccccc13)CC2 | 469 nM |
